{"source": "patent US8785402B2", "about": "“Compositions and assays for treatment and diagnosis of helicobacter pylori infection and conditions” (Academia Sinica, priority 2009, dated 2014)", "key": {"[1]": {"tested_on": "H. pylori-infected Capan 1 cells", "experiment": "Immunoblot of translocated CagA (adhesion efficiency of H. pylori) in infected Capan 1 cells", "assay_type": "cell-based, human", "conditions": "Capan 1, 100 μM FNJ", "procedure": "(§1) FIG. 8A-8D collectively provide immunoblot analysis of epithelial cells infected with H. pylori using mouse monoclonal anti-CagA. Capan 1 and AGS cells were infected with different H. pylori strains, including CagA^+ and CagA^−, and various clinical isolates from patients with gastritis (GS), duodenal ulcer (DU) and gastric cancer (GC). PBS represents the negative control. The co-culture was maintained for 6-8 h at an MOI of ˜200:1. In the parallel experiments, Capan 1 (a) and AGS cells (c) were infected under the same conditions. The effect of α-L-fucosidase was evaluated by addition of 100 μM FNJ to the co-cultures of Capan 1 (b) and AGS cells (d) with various H. pylori strains.\n(§2) FIG. 9 illustrates immunoblot analysis of H. pylori-infected epithelial cells with mouse monoclonal anti-CagA. Capan 1 and AGS cells were infected with different H. pylori strains that were clinical isolates from five different patients with duodenal ulcer (DU). PBS was used as a negative control in the absence of H. pylori. The co-culture was maintained for 6-8 h at an MOI of ˜200:1. […] The effect of α-L-fucosidase was evaluated by addition of 100 μM of the α-L-fucosidase inhibitor, FNJ, to co-cultures of Capan 1 (b) and AGS cells (d) with the indicated H. pylori strains. […]\n(§3) CagA of H. pylori was the first reported bacterial virulence protein translocated by a type IV secretion system (Stein, et al., Proc. Natl. Acad. Sci. USA 2000, 97:1263-1268). Translocated CagA protein can be detected inside host cells soon after H. pylori attachment. The adhesion efficiency of H. pylori can be thus measured by monitoring the level of translocated CagA inside host cells. […] The epithelial cell lysates were analyzed by SDS-PAGE 6-8 h after infection and immunoblotted with a CagA-specific monoclonal antibody. CagA (˜140 kDa) was detected when mock-transfected Capan 1 cells were infected with each different H. pylori strain (FIG. 7B). Nonetheless, CagA was not detected upon Capan 1-FUCA2 K.D. infection with the different H. pylori strains, with the exception of GS (FIG. 7C). […]"}, "[2]": {"tested_on": "H. pylori-infected AGS cells", "experiment": "Immunoblot of translocated CagA (adhesion efficiency of H. pylori) in infected AGS cells", "assay_type": "cell-based, human", "conditions": "100 μM FNJ", "procedure": "as §1, §2, §3"}, "[3]": {"tested_on": "H. pylori-infected Capan 1 cells", "experiment": "Transfer of 6-azido-L-fucose from Capan 1 host cells to H. pylori", "assay_type": "cell-based, human", "conditions": "Capan 1, 100 μM FNJ", "source_text": "(§4) A considerable proportion of H. pylori in the stomach is located at the epithelial mucosa (Schreiber S, et al. Proc. Natl. Acad. Sci. USA 2004, 101:5024-5029) where there are various fucose-containing oligosaccharides including Lewis antigens. To determine if H. pylori acquires L-fucose from host cells, similar to the interaction between B. thetaiotaomicron and small intestine cells (Hooper, et al. Proc. Natl. Acad. Sci. USA 1999, 96:9833-9838), the click chemistry-based fluorogenic labeling method developed by Wong and coworkers (Sawa M, et al. Proc. Natl. Acad. Sci. USA 2006, 103:12371-12376) was applied to detect fucosylated glycoconjugates. […]\nas §3, with “7B).” for “7B). Nonetheless, CagA was not detected upon Capan 1-FUCA2 K.D. infection with the different H. pylori strains, with the exception of GS (FIG. 7C).”"}, "[4]": {"tested_on": "H. pylori-infected AGS cells", "experiment": "Transfer of 6-azido-L-fucose from AGS host cells to H. pylori", "assay_type": "cell-based, human", "conditions": "100 μM FNJ", "source_text": "as §4\nas §3, with “7B).” for “7B). Nonetheless, CagA was not detected upon Capan 1-FUCA2 K.D. infection with the different H. pylori strains, with the exception of GS (FIG. 7C).”"}, "[5]": {"tested_on": "Le^x antigen in H. pylori", "experiment": "Anti-Le^x immunoblot of H. pylori lysates after co-culture with Capan 1 cells", "assay_type": "cell-based, Helicobacter pylori", "procedure": "(§5) FIGS. 11A-11D collectively show immunoblot analysis of H. pylori-infected Capan 1 and AGS cells with mouse monoclonal anti-Le^x antigen. Capan 1 and AGS cells were infected with different H. pylori strains (from DU-152 to DU-157) that were clinical isolates from six different patients with duodenal ulcer (DU). PBS represents a negative control in the absence of H. pylori. The co-culture was maintained for 12 h at an MOI of ˜400:1. In the parallel experiments, Capan 1 (11a) and AGS cells (11c) were infected under the same conditions. The effect of α-L-fucosidase was evaluated by addition of 100 μM FNJ to the co-cultures of Capan 1 (11b) and AGS cells (11d) with various H. pylori strains. The bacterial cells were collected and lysed for Le^x analysis.\n(§6) The secretion of FUCA2 directly results in the extracellular production of L-fucose residues that are then incorporated into H. pylori. It is important to determine if the L-fucose-related biosynthesis is affected at the same time. […] The H. pylori cell lysates were analyzed by SDS-PAGE 12 h after infection and immunoblotted with a Le^x-specific monoclonal antibody. […] In contrast, Le^x-containing glycoproteins were detected in substantial amounts without FNJ treatment (FIGS. 11A and 11C, corresponding to H. pylori-infected Capan 1 and AGS cells, respectively)."}, "[6]": {"tested_on": "Le^x antigen in H. pylori", "experiment": "Anti-Le^x immunoblot of H. pylori lysates after co-culture with AGS cells", "assay_type": "cell-based, Helicobacter pylori", "conditions": "100 μM FNJ, DU-152 to DU-157, 12 h, MOI ~400:1", "procedure": "as §5, §6"}, "[7]": {"tested_on": "human FUT3 and FUT6", "experiment": "Anti-Fut 3/6 immunoblot of Capan 1 cells infected with H. pylori", "assay_type": "cell-based", "conditions": "Capan 1 cells pre-treated with H. pylori and 50 nM FNJ for 4 h", "procedure": "Lane A, extract of Capan 1 cells. Lane B, extract of Capan 1 cells pre-treated with H. pylori for 4 h. Lanes C, C′, duplicate independent experiments of extract of Capan 1 cells pre-treated with H. pylori and 50 nM of the α-L-fucosidase inhibitor, FNJ, for 4 h.\nL-Fucose is a likely source of utilizable carbon and energy because it is located at the termini of mammalian glycoconjugates. L-Fucose is an abundant component of many host gastric mucosa glycoconjugates (Madrid, et al., J. Histochem. Cytochem 1998, 46:1311-1320) that are constitutively synthesized by host cells. Thus, the “request” from H. pylori to manufacture fucosylated glycans may require the host to activate translation of one or more of its fucosyltransferase proteins."}, "[8]": {"tested_on": "H. pylori", "experiment": "Adherence of H. pylori to host cells on treatment of infected cells", "assay_type": "cell-based, Helicobacter pylori", "conditions": "summary statement; host cells not specified", "source_text": "CagA of H. pylori was the first reported bacterial virulence protein translocated by a type IV secretion system (Stein, et al., Proc. Natl. Acad. Sci. USA 2000, 97:1263-1268). Translocated CagA protein can be detected inside host cells soon after H. pylori attachment. The adhesion efficiency of H. pylori can be thus measured by monitoring the level of translocated CagA inside host cells. Four different epithelial cell lines were chosen for the study, namely mock-transfected Capan 1, Capan 1-FUCA2 K.D., Capan 1, and AGS cells. Isogenic vacA (CagA+), cagA (CagA−) mutants, and clinical isolates from patients with gastritis (GS), duodenal ulcer (DU), and gastric cancer (GC) were selected for co-culturing with the four epithelial cell lines. The epithelial cell lysates were analyzed by SDS-PAGE 6-8 h after infection and immunoblotted with a CagA-specific monoclonal antibody. CagA (˜140 kDa) was detected when mock-transfected Capan 1 cells were infected with each different H. pylori strain (FIG. 7B). Nonetheless, CagA was not detected upon Capan 1-FUCA2 K.D. infection with the different H. pylori strains, with the exception of GS (FIG. 7C). […] In contrast, CagA was detected in substantial amounts without FNJ treatment (FIGS. 8A and 8C, corresponding to the results of Capan 1 and AGS cells, respectively)."}, "[9]": {"conditions": "DU strains DU-152, DU-153, DU-154, DU-155, DU-157"}, "[10]": {"conditions": "DU- or GC-specific H. pylori strains, 6-8 h, MOI ~200:1"}, "[11]": {"conditions": "GS-specific H. pylori strain, 6-8 h"}}, "note": "“Also recorded” adds a separate entry of the source."}
{"compound": "CC1NC(CN)C(O)C(O)C1O", "note": "(stereo not shown) [FNJ, 1-aminomethyl-1-deoxy-fuconojirimycin]", "values": [{"measurement": "CagA present in host cells", "setting": "[1]; [9]", "result": "no longer present"}, {"measurement": "CagA detected in host cells", "setting": "[1]; [10]", "result": "no or little CagA was detected"}, {"measurement": "level of CagA", "setting": "[1]; [11]", "result": "not affected"}, {"measurement": "CagA present in host cells", "setting": "[2]; [9]", "result": "no longer present"}, {"measurement": "CagA detected in host cells", "setting": "[2]; [10]", "result": "consistent with those obtained in AGS cells"}, {"measurement": "level of CagA", "setting": "[2]; [11]", "result": "not affected"}, {"measurement": "transfer of 6-azido-L-fucose from host cells to H. pylori", "setting": "[3]", "result": "considerably reduce"}, {"measurement": "transfer of 6-azido-L-fucose from host cells to H. pylori", "setting": "[4]", "result": "considerably reduce"}, {"measurement": "Le^x-expression level in H. pylori", "setting": "[5]; Capan 1, 100 μM FNJ, DU-152 to DU-157, 12 h, MOI ~400:1", "result": "considerably reduce; also recorded: significantly less"}, {"measurement": "level of Le^x-containing glycoproteins in H. pylori", "setting": "[5]; summary statement, host cells not specified", "result": "significantly reduced"}, {"measurement": "Le^x-expression level in H. pylori", "setting": "[6]", "result": "considerably reduce; also recorded: significantly less"}, {"measurement": "expression of human FUT3 and FUT6", "setting": "[7]", "result": "decreased substantially"}, {"measurement": "adherence of H. pylori to host cells", "setting": "[8]", "result": "effectively prevented adherence"}]}
